In patent US20110256557A1, “IDENTIFYING PARATHYROID HORMONE AGONISTS AND ANTAGONISTS” (DISCOVERYBIOMED, INC., priority 2008, published 2011):

Experiments:
[1] = test system: phosphorylated LRP6 in osteoblasts; experiment: Immunohistochemistry of phosphorylated LRP6 in femur sections, rats; assay type: in vivo, rat
Method: For the experiments in which rats or mice were administered PTH as single-dose injection, five-month-old male Sprague Dawley rats (Charles River Laboratories; Wilmington, Mass.) or two-month-old male C57BL/J6 mice (Jackson Laboratory; Bar Harbor, Me.) (6 per group) were administered a single dose of either vehicle (1 mM acetic acid in sterile PBS) or PTH (1-34) (Bachem Inc.; Torrance, Calif.) at 40 μg/kg in a volume of 100 μl. In the mouse model, mouse recombinant Wnt3a (R&D Systems; Minneapolis, Minn.) was injected at 25 μg/kg in a volume of 100 μl. All treatments were through bolus intravenous injection via the tail vein. Rats/mice were sacrificed at 0.5, 2, 8 and 24 hours after injection.
Formalin-fixed femur or tibia tissue sections of 5 μm thickness from rats or mice were processed with antigen retrieval and hydrogen peroxide treatment prior to incubation with primary monoclonal antibody specific for β-catenin (BD Biosciences; San Jose, Calif.), goat polyclonal antibody sclerostin (R&D Systems; Minneapolis, Minn.) or rabbit polyclonal phosphorylated LRP6 (Ab1490) for 1 hour at room temperature or overnight at 4° C. […] In the mouse model, numbers of total osteoblasts and numbers of β-catenin-positive osteoblasts were counted in three random high power fields in a 2-mm square, 1 mm distal to the lowest point of the growth plate in the secondary spongiosa. […]

β-catenin = experiment: Western blot of cytosolic β-catenin in mouse calvarial primary preosteoblasts; assay type: cell-based; settings: concentration- and time-dependent
Method: Osteoblasts were isolated by digestion of calvaria of newborn mice as described (Wang et al., J. Clin. Invest. 117:1616-26 (2007)). Briefly, calvaria were incubated with 10 ml of digestion solution containing 1.8 mg/ml of collagenase type I (Worthington Biochemical Corp.; Lakewood, N.J.) for 15 minutes at 37° C. under constant agitation. The supernatant was then harvested, replaced with fresh collagenase and the digestion repeated an additional 4 times. Digestion solutions containing the osteoblasts were pooled together. After centrifugation, osteoblasts were obtained and cultured in α-Minimal Essential Media (MEM) containing 10% FBS and 1% penicillin/streptomycin at 37° C. in a humidified incubator supplied with 5% CO2.
Cells were harvested in cavitation buffer (5 mM HEPES, pH 7.4, 3 mM MgCl2, 1 mM EGTA, 250 mM sucrose) containing protease and phosphatase inhibitors and homogenized by nitrogen cavitation (200 p.s.i., for 5 minutes) in a cell disruption bomb (Parr Instrument Co.; Moline, Ill.). The cell homogenate was centrifuged twice at 700 g for 10 minutes to pellet the nuclei. The supernatant was further centrifuged at 100,000 g (Beckman SW50.1 rotor) for 1 hour to separate the membrane and cytosol fractions, and the resulting membrane pellet was washed three times with cavitation buffer before use in the assays (Zhang et al., Biochem. J. 343:541-9 (1999)). […]

CFP-PTH1R and YFP-LRP6 = biological target: T1, CFP-PTH1R and YFP-LRP6 (Homo sapiens, UniProt Q03431); experiment: Photobleaching-based FRET of CFP-PTH1R and YFP-LRP6 in HEK293 cells; assay type: cell-based
T1 construct: expressed in transfected cells; host or cells: HEK293
T1 sequence (Q03431 27-593): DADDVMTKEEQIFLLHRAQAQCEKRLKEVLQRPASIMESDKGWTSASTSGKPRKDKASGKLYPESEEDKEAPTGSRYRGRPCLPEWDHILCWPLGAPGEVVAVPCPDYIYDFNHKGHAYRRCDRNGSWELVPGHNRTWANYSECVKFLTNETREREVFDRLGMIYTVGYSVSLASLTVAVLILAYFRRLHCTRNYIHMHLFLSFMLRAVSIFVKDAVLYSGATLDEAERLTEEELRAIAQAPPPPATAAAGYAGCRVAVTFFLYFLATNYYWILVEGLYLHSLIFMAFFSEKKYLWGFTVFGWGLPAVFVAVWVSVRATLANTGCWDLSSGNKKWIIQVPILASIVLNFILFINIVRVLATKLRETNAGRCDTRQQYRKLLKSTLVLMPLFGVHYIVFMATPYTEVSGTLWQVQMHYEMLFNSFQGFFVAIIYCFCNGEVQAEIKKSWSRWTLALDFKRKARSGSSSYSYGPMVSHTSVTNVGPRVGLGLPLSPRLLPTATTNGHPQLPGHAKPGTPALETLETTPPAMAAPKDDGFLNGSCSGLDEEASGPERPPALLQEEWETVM
Text: PTH1R and BMPRII cDNAs were cloned into ECFP-N1, and LRP6 and mLRP4T100 cDNAs were cloned into EYFP—N1 (Clonetech; Palo Alto, Calif.) expression vectors. These vectors were modified by site-directed mutagenesis that prevents the self-dimerization (Bhatia et al., Proc. Natl. Acad. Sci. USA 102:15569-74 (2005)). CFP and YFP were fused at the C-termini of the receptors. Because CFP-PTH1R or CFP-BMPRII (the fluorescent FRET donors) is quenched when in the proximity of YFP-LRP6 or YFP-mLRP4T100 (the acceptors), FRET efficiency can be measured by comparing donor fluorescence pre- and post-photobleaching of the acceptor. […] HEK293 cells on coverslips in 35 mm dishes were cotransfected with 0.1 μg of each plasmid. Cells were observed using Leica TCS SP II AOBS laser-scanning confocal microscope. An excitation wavelength of 405 nm and an emission range of 416-492 nm, and an excitation wavelength of 514 nm and an emission range of 525-600 nm were used to acquire images of CFP and YFP, respectively. YFP was photobleached by using full power of the 514 nm line for 1-2 minutes. An image of CFP and YFP fluorescence after photobleaching was obtained by using the respective filter sets. Images were representatives of three experiments. The FRET efficiencies were calculated according to: FRET eff %=[(Donorpost−Donorpre)/(Donorpost)]

Substance: Parathyroid hormone [PTH]
- phosphorylation of LRP6 in preosteoblasts or osteoblasts at the surface of trabecular bone ([1]; single dose of PTH (1-34) 40 μg/kg, antibody specific for phosphorylated PPPSP): stimulated
- amount of total LRP6 protein ([1]; single dose, same tissue): remained unchanged
- levels of β-catenin in the cytosol (β-catenin): enhanced
- FRET efficiency between CFP-PTH1R and YFP-LRP6 (CFP-PTH1R and YFP-LRP6): increased
- FRET efficiency in control pairs YFP-LRP6/CFP-BMPRII and CFP-PTH1R/YFP-mLRP4T100 (CFP-PTH1R and YFP-LRP6): did not enhance the FRET efficiency
